Assay results reported in patent US9834581B2, “Cell penetrating peptides for intracellular delivery of molecules” (AADIGEN, LLC, priority 2012, dated 2017).
Where two headings read alike, the source gives them in different places. *1 amine or outer side, *2 acyl side, *3 side chain or, on linkers, in order; H or OH if unused. Where a SMILES comes first, the peptide text is derived from it. [ ]: non-standard residue; d: D form. Cysteamide = C(CS[*:3])N[*:1]; βAla = NCCC(=O)O

How the values were obtained:
[1] = tested on: Hela cells
Method: (§7) Adherent HS68 fibroblasts, HeLa, PC3, CEM-SS, U20S, MCF-7, and HEK2 cell lines (from American Type Culture Collection (ATCC)), as well as MEF and PBMC, were cultured in Dulbecco's Modified Eagle's Medium supplemented with 2 mM glutamine, 1% antibiotics (streptomycin 10,000 μg/ml, penicillin, 10,000 IU/ml) and 10% (w/v) foetal calf serum (FCS), at 37° C. in a humidified atmosphere containing 5% CO2. Stock solutions of VEPEP-4/peptide particles were prepared by complexing 1 μM peptide with VEPEP-4 peptides at a molar ratio of 1/20 for 30 min at 37° C. […] 150,000 cells seeded in a 35 mm dish the day prior transfection, were grown to 60% confluence and overlaid with 200 μl of preformed complexes, incubated for 3-5 min, then 400 μl of DMEM were added. After 30 min. incubation at 37° C., 1 ml of fresh DMEM containing 16% foetal calf serum (FCS) was added in order to reach a final FCS concentration of 10%, without removing the overlay of VEPEP-4/peptide complexes. Cells were returned to the incubator for 24 hrs. For CDK2 derived peptides cell proliferation was monitored after 24 and 48 hrs. […] Data reported are an average of 3 or 4 distinct experiments.

[2] = tested on: MCF7 cells
Method: as §7

[3] = tested on: HEK2; assay: cells; format: cell-based
Method: (§1) Adherent HS68 fibroblasts, HeLa, PC3, CEM-SS, U20S, MCF-7, and HEK2 cell lines (from American Type Culture Collection (ATCC)), as well as MEF and PBMC, were cultured in Dulbecco's Modified Eagle's Medium supplemented with 2 mM glutamine, 1% antibiotics (streptomycin 10,000 μg/ml, penicillin, 10,000 IU/ml) and 10% (w/v) foetal calf serum (FCS), at 37° C. in a humidified atmosphere containing 5% CO2. Stock solutions of VEPEP-4/peptide particles were prepared by complexing 1 μM peptide with VEPEP-4 peptides at a molar ratio of 1/20 for 30 min at 37° C. Lower concentrations of VEPEP-4-carrier/peptide (from 500 nM to 1 μM) were obtained by serial dilution of the stock complexes in PBS, in order to preserve the same VEPEP-4-carrier/peptide ratio. 150,000 cells seeded in a 35 mm dish the day prior transfection, were grown to 60% confluence and overlaid with 200 μl of preformed complexes, incubated for 3-5 min, then 400 μl of DMEM were added. After 30 min. incubation at 37° C., 1 ml of fresh DMEM containing 16% foetal calf serum (FCS) was added in order to reach a final FCS concentration of 10%, without removing the overlay of VEPEP-4/peptide complexes. Cells were returned to the incubator for 24 hrs. For CDK2 derived peptides cell proliferation was monitored after 24 and 48 hrs. For peptide-targeting integrase, HIV proliferation was analyzed on activated PBMC cells after 3 and 5 days. Data reported are an average of 3 or 4 distinct experiments.
(§2) VEPEP-4 peptides have been used for the delivery of different small fluorescent hydrophobic and charged molecules as well as doxorubicin on different cell lines including primary cell lines and challenging cell lines. VEPEP-4 peptides form stable particles with small aromatic molecules including doxorubicin. Effect of VEPEP-4 mediated delivery of doxorubicin has been investigated on cancer cell viability. […] The impact of carrier peptides to improve cellular uptake of small molecule drugs was estimated by following inhibition of proliferation of cancer cells.

[4] = tested on: Hela; assay: cells
Method: Cells were returned to the incubator for 24 hrs.
Effect of VEPEP-4 mediated delivery of doxorubicin has been investigated on cancer cell viability.

[5] = tested on: Peptide (C4); assay: Fluorescence titration of VEPEP-4 binding to peptide cargo
Method: (§3) Fluorescence experiments were performed on a PTI spectrofluorimeter at 25° C. in a NaCl 154 mM buffer. Intrinsic Trp-fluorescence of VEPEP-4 was excited at 290 nm and emission spectrum was recorded between 310 and 400 nm, with a spectral band-pass of 2 and 8 nm for excitation and emission, respectively. FITC-fluorescence of labelled-peptide was excited at 492 nm and emission recorded between 500 and 580 nm. For VEPEP-4/peptide interaction, 0.5 μM of FITC-labelled peptide was titrated by increasing concentrations of VEPEP-4. All measurements were corrected for the dilution and curve fitting were performed by using Grafit software (Erithacus).
(§4) VEPEP-4i (SEQ ID No: 1) and VEPEP-4j (SEQ ID No: 2) peptides form stable complexes with peptides. The binding of cargos to VEPEP-4 was monitored by fluorescence spectroscopy using the both intrinsic Trp group of VEPEP-4 (4 Trp-residues) and extrinsic fluorescently labeled cargoes (using Cy5 or FITC). Curve fitting reveal that VEPEP-4 strongly binds the different cargoes with dissociation constant in the nanomolar range (Table 1 and FIG. 1).

[6] = tested on: Cyclic peptide (PC4); assay: Fluorescence titration of VEPEP-4 binding to cyclic peptide cargo
Method: as §3, §4

[7] = Fluorescence titration of VEPEP-4 binding to small molecule cargo
Method: as §3
VEPEP-4 peptides also form stable particles with small aromatic molecules including daunomycin, Paclitaxel, doxorubicin, porphyrin and charged molecules including nucleotide, nucleoside and peptide-analogue of nucleic acids or fluorescent dyes. The dissociation constant for small hydrophobic molecule ranges between 0.05 to 2 μM, depending on the nature of the dyes and of the peptides.
Binding of small molecule cargoes has been investigated in detail depending on the nature of the SMH. Several hydrophobic and charges molecules have been use (Daunomycin, Paclitaxel, doxorubicin, porphyrin) and charged molecules (nucleotide, nucleoside and fluorescent dyes).

[8] = tested on: MCF7; format: cell-based, Human
Method: as §1, §2

[9] = tested on: MEF; assay: VEPEP-4 mediated delivery of fluorescently labelled peptide (fluorescence microscopy or FACS); format: cell-based, Mouse; details: uptake of fluorescently labelled peptide cargo
Method: as §1
(§5) VEPEP-4 peptides have been used for the delivery of different peptides into different cell lines, including primary cell lines, stem cell lines and challenging cell lines. Peptide delivery was monitored using three approaches, fluorescence spectroscopy and monitoring biological responses (anti proliferation and anti viral responses).
(§6) 1—Fluorescently labelled peptide was visualized in the different cell lines using fluorescence microscopy or FACS sorting (Table 3). In most of the cell lines, the uptake of Cy-5 labelled peptides is more than 70% of the cells.

[10] = tested on: CEM-SS; assay: as above; format: cell-based, Human; details: uptake of fluorescently labelled peptide cargo
Method: as §1, §5, §6

[11] = tested on: HS-68; assay: as above; format: cell-based, Human; details: HS-68, uptake of fluorescently labelled peptide cargo
Method: as §1, §5, §6

[12] = tested on: Hela; assay: as above; format: cell-based, Human; details: uptake of fluorescently labelled peptide cargo
Method: as §1, §5, §6

[13] = tested on: MCF7; assay: as above; format: cell-based, Human; details: MCF7, uptake of fluorescently labelled peptide cargo
Method: as §1, §5, §6

[14] = tested on: PBMC; assay: as above; format: cell-based, Human; details: uptake of fluorescently labelled peptide cargo
Method: as §1, §5, §6

[15] = tested on: U2OS; assay: as above; format: cell-based, Human; details: uptake of fluorescently labelled peptide cargo
Method: as §1, §5, §6

[16] = tested on: HIV-1LAI; format: cell-based; details: for IC50: 1LAI
Method: as §1
The anti-HIV activities of the peptides (PC4D, PC4S, PC6D, PC6S) and VEPEP-4/peptides complexes were assayed according to previously described method (Roisin et al, 2004). Phytohemagglutinin-P (PHA-P)-activated peripheral blood mononuclear cells (PBMC) treated by increasing concentrations of peptide (from 100 to 0.1 nM), one hour later, were infected with hundred 50% tissue culture infectious doses (TCID50) per 100,000 cells of the HIV-1-LAI or different resistant strains (Barre-Sinoussi et al, 1983). Viruses were amplified in vitro on PHA-P-activated PBMC. Viral stock was titrated using PHA-P-activated PBMC, and 50% TCID50 were calculated using Kärber's formula (Karber 1931). Samples were maintained throughout the culture, and cell supernatants were collected at day 7 post-infection and stored at −20 C. Viral replication was measured by quantifying RT activity in cell culture supernatants. In parallel, cytotoxicity of the compounds was evaluated in uninfected PHA-P-activated PBMC by colorimetric 3-(4-5 dimethylthiazol-2-yl)2,5 diphenyl tetrazolium bromite (MTT) assay on day 7 (Mossmann 1983). Experiments were performed in triplicate and repeated with another blood donor. […]

| Compound | Binding [5] | Kd [5] [nM] | Binding [6] | Kd [6] [nM] | Binding ([7]; cargo Doxorubicin) | Kd ([7]; cargo Doxorubicin) [nM] | Binding ([7]; cargo FAM-guanosine) | Kd ([7]; cargo FAM-guanosine) [nM] | Binding ([7]; cargo porphyrin) | Kd ([7]; cargo porphyrin) [nM] | IC50 [3] [nM] | IC50 [8] [nM] | IC50 [4] [nM] | Efficiency [9] [%] | Efficiency [10] [%] | Efficiency [11] [%] | Efficiency [12] [%] | Efficiency [13] [%] | Efficiency [14] [%] | Efficiency [15] [%] | further results |
| --- | --- | --- | --- | --- | --- | --- | --- | --- | --- | --- | --- | --- | --- | --- | --- | --- | --- | --- | --- | --- | --- |
| CSCC[C@H](NC(=O)[C@H](CCCNC(=N)N)NC(=O)[C@@H](NC(=O)[C@H](CCC(N)=O)NC(=O)[C@H](CCCCN)NC(=O)[C@@H](N)CCCCN)C(C)C)C(=O)N[C@@H](C)C(=O)N[C@@H](Cc1c[nH]cn1)C(=O)N[C@@H](CC(C)C)C(=O)N[C@H](C(=O)N[C@@H](CC(C)C)C(=O)N[C@H](C(=O)O)[C@@H](C)O)C(C)C [C4, KKQVRMAHLVLT] (H-KKQVRMAHLVLT-OH; N-terminus and C-terminus assumed) |  |  |  |  |  |  |  |  |  |  |  |  |  |  |  |  |  |  |  |  | IC50 [1]: 50 ± 15 nM; concentration sufficient to block proliferation ([1]; Hela, C4 delivered by VEPEP-4): 100 nM; IC50 [2]: 60 ± 12 nM; concentration sufficient to block proliferation ([2]; MCF7, C4 delivered by VEPEP-4): 100 nM |
| COc1cccc2c1C(=O)c1c(O)c3c(c(O)c1C2=O)C[C@@](O)(C(=O)CO)C[C@@H]3O[C@H]1C[C@H](N)[C@H](O)[C@H](C)O1 [Doxo, doxorubicin, reference compound] |  |  |  |  |  |  |  |  |  |  |  |  |  |  |  |  |  |  |  |  | IC50 ([3]; HEK2, Free drug, read-out: IC50): 10000 nM; fold more efficient when complexed with VEPEP-4 ([3]; complexed versus free drug, cancer cells of Table 5): 25 fold; IC50 ([4]; Homo sapiens, HeLa): 25000 nM |
| CC(=O)NCCC(=O)N[C@@H](Cc1c[nH]c2ccccc12)C(=O)N[C@@H](Cc1c[nH]c2ccccc12)C(=O)N[C@@H](CCCNC(=N)N)C(=O)N[C@@H](CC(C)C)C(=O)N[C@@H](CCCNC(=N)N)C(=O)N[C@@H](CO)C(=O)N[C@@H](Cc1c[nH]c2ccccc12)C(=O)N[C@@H](Cc1ccccc1)C(=O)N[C@@H](CCCNC(=N)N)C(=O)NCCS [Short 3, X1WWRLRSWFR] (Ac-[βAla]WWRLRSWFR-Cysteamide) | yes | 10 to 20 | yes | 50 to 100 | yes | 100 | yes | 100 | yes | 700 | 1100 | 900 | 1200 |  |  |  |  |  |  |  |  |
| CC(=O)NCCC(=O)N[C@@H](Cc1c[nH]c2ccccc12)C(=O)N[C@@H](Cc1ccccc1)C(=O)N[C@@H](CCCNC(=N)N)C(=O)N[C@@H](CC(C)C)C(=O)N[C@@H](CO)C(=O)N[C@@H](CC(C)C)C(=O)N[C@@H](CCCNC(=N)N)C(=O)N[C@@H](Cc1ccccc1)C(=O)N[C@@H](Cc1c[nH]c2ccccc12)C(=O)NCCS [Short 4, X1WFRLSLRFW] (Ac-[βAla]WFRLSLRFW-Cysteamide) | yes | 10 to 20 | yes | 50 to 100 | yes | 10 | yes | 70 | yes | 600 | 500 | 500 | 600 | 67 | 74 | 87 | 58 | 78 | 65 | 65 | IC50 [16]: 0.37 ± 0.1 nM |
| CC(=O)NCCC(=O)N[C@@H](Cc1c[nH]c2ccccc12)C(=O)N[C@@H](Cc1c[nH]c2ccccc12)C(=O)N[C@@H](CCCNC(=N)N)C(=O)N[C@@H](CC(C)C)C(=O)N[C@@H](CO)C(=O)N[C@@H](CC(C)C)C(=O)N[C@@H](CCCNC(=N)N)C(=O)N[C@@H](Cc1c[nH]c2ccccc12)C(=O)N[C@@H](Cc1c[nH]c2ccccc12)C(=O)NCCS [VEPEP-3i, X1WWRLSLRWW] (Ac-[βAla]WWRLSLRWW-Cysteamide) | yes | 10 to 20 | yes | 50 to 100 | yes | 50 | yes | 60 | yes | 400 | 400 | 500 | 1200 | 84 | 70 | 80 | 65 | 50 | 80 | 78 | IC50 [16]: 0.24 ± 0.1 nM |
| CC(=O)NCCC(=O)N[C@@H](Cc1c[nH]c2ccccc12)C(=O)N[C@@H](Cc1ccccc1)C(=O)N[C@@H](CCCNC(=N)N)C(=O)N[C@@H](CC(C)C)C(=O)N[C@@H](CO)C(=O)N[C@@H](CC(C)C)C(=O)N[C@@H](CCCNC(=N)N)C(=O)N[C@@H](Cc1ccccc1)C(=O)N[C@@H](Cc1c[nH]c2ccccc12)C(=O)N[C@@H](CCCNC(=N)N)C(=O)NCCS [VEPEP-3j, X1WFRLSLRFWR] (Ac-[βAla]WFRLSLRFWR-Cysteamide) | yes | 10 to 20 | yes | 50 to 100 | yes | 70 | yes | 50 | yes | 500 | 300 | 200 | 800 | 70 | 65 | 80 | 62 | 65 | 80 | 81 | IC50 [16]: 0.17 ± 0.07 nM |
| TWFTEWFT (Ac-TWFTEWFT-Cysteamide; SMILES CC(=O)N[C@H](C(=O)N[C@@H](Cc1c[nH]c2ccccc12)C(=O)N[C@@H](Cc1ccccc1)C(=O)N[C@H](C(=O)N[C@@H](CCC(=O)O)C(=O)N[C@@H](Cc1c[nH]c2ccccc12)C(=O)N[C@@H](Cc1ccccc1)C(=O)N[C@H](C(=O)NCCS)[C@@H](C)O)[C@@H](C)O)[C@@H](C)O) [PC4S, scrambled peptide, control of PC4D, reference compound] |  |  |  |  |  |  |  |  |  |  |  |  |  |  |  |  |  |  |  |  | anti viral activity ([16]; scrambled peptide, PBMC infected by HIV-1LAI): do not show any anti viral activity |
